In ChEMBL document CHEMBL4483862, “Open-source discovery of chemical leads for next-generation chemoprotective antimalarials” (2018):

Test system: Plasmodium berghei
Assay: Luciferase/luciferin-expressing antifolate-resistant parasites were used to infect a culture of HepG2 cells that were pre-incubated with compounds. Infected hepatocytes emit light due to the luciferase reaction. Assay results are presented as the percent inhibition of light emission compared to control. […]
Assay type: functional
Details: sporozoite; for IC90: read-out: LUCIFERASE INFECTION ASSAY - IC90

CC(NCC(O)COC1CCC(C(C)(C)C)CC1)c1ccccc1 (stereo not given)
IC50 (PBLUC_HILL_SLOPE 10.1, PBLUC_R_SQUARED 0.42, read-out: LUCIFERASE INFECTION ASSAY - IC50): 7.39 µM
IC90: > 8.92 µM

c1ccc(-c2cc(N3CCCCC3)c3ccccc3n2)nc1
IC50 (PBLUC_HILL_SLOPE 9.83, PBLUC_R_SQUARED 0.0291, read-out: LUCIFERASE INFECTION ASSAY - IC50): 10.3 µM
IC90: > 11.4 µM

O=C(Nc1nc2ccccc2[nH]1)c1cc(-c2ccccn2)nc2ccccc12
IC50 (PBLUC_HILL_SLOPE 9.86, PBLUC_R_SQUARED 0.717, read-out: LUCIFERASE INFECTION ASSAY - IC50): 7.76 µM
IC90: 9.7 µM

N#CC(C#N)=NNc1ccc(F)c(F)c1F
IC50 (PBLUC_HILL_SLOPE 9.99, PBLUC_R_SQUARED 0.46, read-out: LUCIFERASE INFECTION ASSAY - IC50): 11.6 µM
IC90: 14.5 µM

O=c1c2ccccc2oc2nc(-c3ccccc3)n(Cc3ccccc3)c(=O)c12
IC50 (PBLUC_HILL_SLOPE 10.1, PBLUC_R_SQUARED 0.696, read-out: LUCIFERASE INFECTION ASSAY - IC50): 3.55 µM
IC90: 4.41 µM

COc1ccc(C2(c3ccc(OC)cc3)NC(=O)N(CC(=O)c3cc(C)n(C4CC4)c3C)C2=O)cc1
IC50 (PBLUC_HILL_SLOPE 10.1, PBLUC_R_SQUARED 0.388, read-out: LUCIFERASE INFECTION ASSAY - IC50): 8.48 µM
IC90: > 10 µM

O=c1c(Cl)c(NCC(c2ccco2)N2CCCCC2)cnn1-c1nc2ccccc2[nH]1 (stereo not given)
IC50 (PBLUC_HILL_SLOPE 10.1, PBLUC_R_SQUARED 0.23, read-out: LUCIFERASE INFECTION ASSAY - IC50): 8.87 µM
IC90: > 10 µM

Cc1c(C(=O)OCC(=O)c2ccc(OC(F)F)cc2)sc2nc3n(c(=O)c12)CCC3
IC50 (PBLUC_HILL_SLOPE 10.3, PBLUC_R_SQUARED 0.714, read-out: LUCIFERASE INFECTION ASSAY - IC50): 7.97 µM
IC90: 9.86 µM

Cn1c(N)c(C(=O)c2cccc(S(=O)(=O)N3CCc4ccccc43)c2)c(=O)[nH]c1=O
IC50 (PBLUC_HILL_SLOPE 10, PBLUC_R_SQUARED 0.0166, read-out: LUCIFERASE INFECTION ASSAY - IC50): > 10 µM
IC90: > 10 µM

COc1ccc(OC)c(CN2CCN(c3nn4cc(-c5ccccc5)nc4s3)CC2)c1
IC50 (PBLUC_HILL_SLOPE 9.65, 2.13, PBLUC_R_SQUARED 0.339, 0.240, read-out: LUCIFERASE INFECTION ASSAY - IC50): 6.69 µM
IC90: > 10 µM

OCc1ccc(-c2cn3c(-c4cccc(OC(F)(F)F)c4)cnc3cn2)cc1
IC50 (PBLUC_HILL_SLOPE 9.63, PBLUC_R_SQUARED 0.631, read-out: LUCIFERASE INFECTION ASSAY - IC50): 3.86 µM
IC90: 4.85 µM

N=C1NC(=Nc2ccc(Cl)c(Cl)c2)c2ccccc21
IC50 (PBLUC_HILL_SLOPE 9.86, PBLUC_R_SQUARED 0.113, read-out: LUCIFERASE INFECTION ASSAY - IC50): 9.53 µM
IC90: > 10 µM

N#CC1=C2Sc3ccccc3N2C(O)(C(F)(F)F)C(C(=O)C(F)(F)F)=C1 (stereo not given)
IC50 (PBLUC_HILL_SLOPE 9.79, 8.06, PBLUC_R_SQUARED 0.178, 0.335, read-out: LUCIFERASE INFECTION ASSAY - IC50): 3.71 µM
IC90: 4.76 µM

CCN(CC)CCCNS(=O)(=O)c1c(C)n[nH]c1C
IC50 (PBLUC_HILL_SLOPE 10.1, PBLUC_R_SQUARED 0.0336, read-out: LUCIFERASE INFECTION ASSAY - IC50): > 10 µM
IC90: > 10 µM

CNc1snc(C)c1C(=O)NCC(c1cccs1)c1c[nH]c2ccccc12 (stereo not given)
IC50 (PBLUC_HILL_SLOPE 9.74, PBLUC_R_SQUARED 0.4, read-out: LUCIFERASE INFECTION ASSAY - IC50): 7.72 µM
IC90: 9.68 µM

CC1CCN(Cc2nc(SC3CCCC3)c3c4c(sc3n2)CCC4)CC1
IC50 (PBLUC_HILL_SLOPE 9.85, PBLUC_R_SQUARED 0.167, read-out: LUCIFERASE INFECTION ASSAY - IC50): 9.59 µM
IC90: > 10 µM

CN(Cc1ccccc1NC(=O)c1ccc2c(c1)OCC(=O)N2)C1CCCCC1
IC50 (PBLUC_HILL_SLOPE 10.4, PBLUC_R_SQUARED 0.15, read-out: LUCIFERASE INFECTION ASSAY - IC50): 9.56 µM
IC90: > 10 µM

COc1cncc(-c2cc(Nc3ccc(Oc4ccccc4)cc3)ncn2)c1
IC50 (PBLUC_HILL_SLOPE 10.3, PBLUC_R_SQUARED 0.501, read-out: LUCIFERASE INFECTION ASSAY - IC50): 7.76 µM
IC90: > 8.91 µM

O=C(CCCNC(=O)c1ccsc1)NNC(=O)c1ccccc1O
IC50 (PBLUC_HILL_SLOPE 9.95, PBLUC_R_SQUARED 0.0276, read-out: LUCIFERASE INFECTION ASSAY - IC50): > 10 µM
IC90: > 10 µM

O=C1OC(C=NC23CC4CC(CC(C4)C2)C3)c2ccccc21 (stereo not given)
IC50 (PBLUC_HILL_SLOPE 9.77, PBLUC_R_SQUARED 0.255, read-out: LUCIFERASE INFECTION ASSAY - IC50): 9.81 µM
IC90: > 11.2 µM

Cc1c(-n2c(SCn3nnc4ccccc4c3=O)nc3ccccc3c2=O)c(=O)n(-c2ccccc2)n1C
IC50 (PBLUC_HILL_SLOPE 10.1, PBLUC_R_SQUARED 0.287, read-out: LUCIFERASE INFECTION ASSAY - IC50): 9.23 µM
IC90: > 10 µM

COc1cc(-c2cc(-c3ccccc3F)cnc2N)ccc1O
IC50 (PBLUC_HILL_SLOPE 10.3, PBLUC_R_SQUARED 0.764, read-out: LUCIFERASE INFECTION ASSAY - IC50): 3.41 µM
IC90: 4.23 µM

COc1cc(-c2cc(-c3ccc(F)cc3)cnc2N)ccc1O
IC50 (PBLUC_HILL_SLOPE 9.98, PBLUC_R_SQUARED 0.631, read-out: LUCIFERASE INFECTION ASSAY - IC50): 3.84 µM
IC90: 4.78 µM

Clc1ccc(-c2cnc3cnc(-c4ccccc4)cn23)cc1
IC50 (PBLUC_HILL_SLOPE 10.1, PBLUC_R_SQUARED 0.74, read-out: LUCIFERASE INFECTION ASSAY - IC50): 3.88 µM
IC90: 4.82 µM

COCCNC(=S)Nc1ccccc1CC(c1c[nH]c2ccccc12)c1c[nH]c2ccccc12
IC50 (PBLUC_HILL_SLOPE 10.3, PBLUC_R_SQUARED 0.121, read-out: LUCIFERASE INFECTION ASSAY - IC50): 9.41 µM
IC90: > 10 µM

CCCC(=O)Nc1ccc(C(=O)C(C)SC2=NN/C(=C3\C=Nc4ccccc43)N2c2ccc(OCC)cc2)cc1 (stereo not given)
IC50 (PBLUC_HILL_SLOPE 9.99, PBLUC_R_SQUARED 0.53, read-out: LUCIFERASE INFECTION ASSAY - IC50): 8.08 µM
IC90: > 10 µM

CCn1c2ccc(C(=O)N/N=C/c3cn(-c4ccccc4)nc3-c3ccc(OC(F)F)cc3)cc2c[n+]1C
IC50 (PBLUC_HILL_SLOPE 9.98, PBLUC_R_SQUARED 0.817, read-out: LUCIFERASE INFECTION ASSAY - IC50): 8.1 µM
IC90: > 10 µM

COc1ccc(Cc2nn3c(C(=S)NCCCN4CCOCC4)c(-c4ccc(Cl)cc4)c4c3n2CCCC4)cc1
IC50 (PBLUC_HILL_SLOPE 10, PBLUC_R_SQUARED 0.392, read-out: LUCIFERASE INFECTION ASSAY - IC50): 8.06 µM
IC90: > 10 µM

CC(C)(C)c1ccccc1NC(=O)Nc1nc(C(N)Cc2ccc(C(F)(F)F)cc2)cs1 (stereo not given)
IC50 (PBLUC_HILL_SLOPE 9.7, PBLUC_R_SQUARED 0.271, read-out: LUCIFERASE INFECTION ASSAY - IC50): 2.74 µM
IC90: 3.44 µM

CC(C)(O)C#Cc1ccc(/C=N/Nc2ccc(I)cc2)cc1
IC50 (PBLUC_HILL_SLOPE 9.96, PBLUC_R_SQUARED 0.415, read-out: LUCIFERASE INFECTION ASSAY - IC50): 7.16 µM
IC90: > 8.16 µM

Cc1[nH]c2ccc(F)cc2c(=O)c1I
IC50 (PBLUC_HILL_SLOPE 10, PBLUC_R_SQUARED 0.604, read-out: LUCIFERASE INFECTION ASSAY - IC50): 1.06 µM
IC90: 1.32 µM

Cc1cnc(NC(=O)Cc2ccc3c(c2)CCC(C)(C)O3)s1
IC50 (PBLUC_HILL_SLOPE 9.94, PBLUC_R_SQUARED 0.592, read-out: LUCIFERASE INFECTION ASSAY - IC50): 3.68 µM
IC90: 4.6 µM

Cn1nc(SCC(=O)NN)c(=O)n(C)c1=O
IC50 (PBLUC_HILL_SLOPE 9.87, PBLUC_R_SQUARED 0.424, read-out: LUCIFERASE INFECTION ASSAY - IC50): 2.84 µM
IC90: 3.54 µM

CC(=O)NC(C)CCc1ccc(-c2csc(-c3ccc(NC(=O)C4CC4)cc3)n2)cc1 (stereo not given)
IC50 (PBLUC_HILL_SLOPE 9.6, PBLUC_R_SQUARED 0.721, read-out: LUCIFERASE INFECTION ASSAY - IC50): 0.116 µM
IC90: 0.146 µM

Nc1ccc(-c2cn3c(-c4cccc(OC(F)(F)F)c4)cnc3cn2)cn1
IC50 (PBLUC_HILL_SLOPE 9.99, PBLUC_R_SQUARED 0.381, read-out: LUCIFERASE INFECTION ASSAY - IC50): 3.39 µM
IC90: 4.23 µM

O=C1N(Cc2ccccn2)C(=O)C2(CCN(C3CCc4ccccc4C3)CC2)N1Cc1ccccc1 (stereo not given)
IC50 (PBLUC_HILL_SLOPE 10, PBLUC_R_SQUARED 0.136, read-out: LUCIFERASE INFECTION ASSAY - IC50): 6.39 µM
IC90: > 6.87 µM

Cc1cc(=O)n2nc(CSc3nc4ccc(Cl)cc4c(=O)n3CC(C)C)sc2n1
IC50 (PBLUC_HILL_SLOPE 10, PBLUC_R_SQUARED 0.71, read-out: LUCIFERASE INFECTION ASSAY - IC50): 3.27 µM
IC90: 4.07 µM

COc1cc(-c2cnc(N)c(-c3ccc(F)c(Cl)c3)c2)ccc1O
IC50 (PBLUC_HILL_SLOPE 10.3, PBLUC_R_SQUARED 0.243, read-out: LUCIFERASE INFECTION ASSAY - IC50): 8.4 µM
IC90: > 9.57 µM

COc1ccc2c(c1)C(=O)/C(=C\c1ccc(OCc3nccn3C)cc1)CO2
IC50 (PBLUC_HILL_SLOPE 10.1, PBLUC_R_SQUARED 0.104, read-out: LUCIFERASE INFECTION ASSAY - IC50): 8.44 µM
IC90: > 10 µM

COC(=O)c1noc(C)c1-c1ccnn1C(=O)Nc1cccc(Cl)c1
IC50 (PBLUC_HILL_SLOPE 10.3, PBLUC_R_SQUARED 0.543, read-out: LUCIFERASE INFECTION ASSAY - IC50): 6.84 µM
IC90: 8.47 µM
